Measured values published in the supplement of paper PMC7017272.
± gives the standard deviation of the averaged measurements.

Assays:
Conditions in all cases: treatment time: 3 days
UT-SCC-24A = test: relative IC50 (midpoint of the fitted curve; maximal inhibition may be below 50%); higher = less potent
Description: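 HNSCC cell lines (500 cells/well, 384-well) were cultured on plastic, on top of (2D) or embedded (3D) in Matrigel or human leiomyoma matrix Myogel (500 ug/mL; Myogel 3D mixed with rat collagen I). Cells were treated for 3 days with 5 ten-fold concentrations of each drug, and viability was read by CellTiter-Glo. Viability was normalised to DMSO (0% inhibition) and 100 uM benzethonium chloride (100% inhibition) controls and fitted with the FIMM DSRT pipeline to give IC50 (nM), maximal % inhibition and the drug sensitivity score (DSS). Suffixes _1/_2/_3 on drug names are replicates.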

UT-SCC-8 [1] = test: relative IC50 (midpoint of the fitted curve; maximal inhibition may be below 50%); higher = less potent
Summary of the method: (§1)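 Using 384-well plates, 500 cells/well of HPV-negative HNSCC cell lines were grown on plastic, on 500 µg/mL Matrigel or Myogel coatings, or embedded in Matrigel or Myogel with rat collagen I. They were treated with compounds at five 10-fold concentrations for 3 days, and luminescence from CellTiter-Glo 2.0 was normalised to vehicle (0.1% DMSO) and cell-killing control wells. IC50, maximal inhibition and drug sensitivity score were derived from percent-inhibition dose–response curves in the FIMM pipeline.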

UT-SCC-14 = test: as above
Summary of the method: as §1

UT-SCC-28 = test: as above
Summary of the method: as §1

UT-SCC-81 [2] = test: as above
Summary of the method: as §1

UT-SCC-106A = test: as above
Summary of the method: as §1

UT-SCC-44 [3] = test: as above
Summary of the method: as §1

UT-SCC-42B [4] = test: as above
Summary of the method: as §1

UT-SCC-73 [5] = test: as above
Summary of the method: as §1

UT-SCC-24B [6] = test: as above
Summary of the method: as §1

UT-SCC-40 [7] = test: as above
Summary of the method: as §1

UT-SCC-42A [8] = test: as above
Summary of the method: as §1

UT-SCC-8 [9] = test: maximal % inhibition of viability relative to DMSO; higher = stronger effect
Description: (§2)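 HNSCC cell lines (500 cells/well, 384-well) were cultured on plastic, on top of (2D) or embedded (3D) in Matrigel or human leiomyoma matrix Myogel (500 ug/mL; Myogel 3D mixed with rat collagen I). Cells were treated for 3 days with 5 ten-fold concentrations of each drug, and viability was read by CellTiter-Glo. Viability was normalised to DMSO and benzethonium chloride controls and fitted with the FIMM DSRT pipeline to give IC50 (nM), maximal % inhibition and DSS. Suffixes _1/_2/_3 are replicates. Only inhibition-mode (IC50) fits are kept.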

UT-SCC-81 [10] = test: as above
Description: as §2

UT-SCC-44 [11] = test: as above
Description: as §2

UT-SCC-42B [12] = test: as above
Description: as §2

UT-SCC-73 [13] = test: as above
Description: as §2

UT-SCC-24B [14] = test: as above
Description: as §2

UT-SCC-40 [15] = test: as above
Description: as §2

UT-SCC-42A [16] = test: as above
Description: as §2

[17] = culture condition: embedded in Matrigel
[18] = culture condition: embedded in Myogel + collagen I
[19] = culture condition: on top of Matrigel
[20] = culture condition: on top of Myogel
[21] = culture condition: plastic 2D (no matrix)

COc1ncc(-c2ccc3nccc(-c4ccnnc4)c3c2)cc1NS(=O)(=O)c1ccc(F)cc1F [Omipalisib]
relative IC50 (UT-SCC-24A; [17]): 4.17 nM
relative IC50 (UT-SCC-24A; [18]): 7 nM
relative IC50 (UT-SCC-24A; [19]): 5.02 nM
relative IC50 (UT-SCC-24A; [20]): 10.1 nM
relative IC50 (UT-SCC-24A; [21]): 5.44 nM
relative IC50 (UT-SCC-8 [1]; [17]): 5.05 nM
relative IC50 (UT-SCC-8 [1]; [19]): 7.5 nM
relative IC50 (UT-SCC-8 [1]; [20]): 8.01 nM
relative IC50 (UT-SCC-8 [1]; [21]): 6.97 nM
relative IC50 (UT-SCC-14; [17]): 5.67 nM
relative IC50 (UT-SCC-14; [19]): 8.29 nM
relative IC50 (UT-SCC-14; [20]): 11.2 nM
relative IC50 (UT-SCC-14; [21]): 6.77 nM
relative IC50 (UT-SCC-28; [17]): 2.99 nM
relative IC50 (UT-SCC-28; [18]): 12.8 nM
relative IC50 (UT-SCC-28; [19]): 5.19 nM
relative IC50 (UT-SCC-28; [21]): 5.26 nM
relative IC50 (UT-SCC-81 [2]; [17]): 4 nM
relative IC50 (UT-SCC-81 [2]; [18]): 8.83 nM
relative IC50 (UT-SCC-81 [2]; [19]): 5.22 nM
relative IC50 (UT-SCC-81 [2]; [20]): 9.49 nM
relative IC50 (UT-SCC-81 [2]; [21]): 8.77 nM
relative IC50 (UT-SCC-106A; [17]): 4.51 nM
relative IC50 (UT-SCC-106A; [18]): 10.1 nM
relative IC50 (UT-SCC-106A; [19]): 5.7 nM
relative IC50 (UT-SCC-106A; [20]): 15.6 nM
relative IC50 (UT-SCC-106A; [21]): 5.69 nM
relative IC50 (UT-SCC-44 [3]; [18]): 10.4 nM
relative IC50 (UT-SCC-44 [3]; [19]): 5.9 nM
relative IC50 (UT-SCC-44 [3]; [20]): 9.17 nM
relative IC50 (UT-SCC-44 [3]; [21]): 14.4 nM
relative IC50 (UT-SCC-42B [4]; [17]): 6.88 nM
relative IC50 (UT-SCC-42B [4]; [19]): 19.3 nM
relative IC50 (UT-SCC-42B [4]; [20]): 36.6 nM
relative IC50 (UT-SCC-42B [4]; [21]): 31.4 nM
relative IC50 (UT-SCC-73 [5]; [17]): 6.73 nM
relative IC50 (UT-SCC-73 [5]; [19]): 6.72 nM
relative IC50 (UT-SCC-73 [5]; [20]): 9.27 nM
relative IC50 (UT-SCC-73 [5]; [21]): 8.51 nM
relative IC50 (UT-SCC-24B [6]; [17]): 11 nM
relative IC50 (UT-SCC-24B [6]; [18]): 9.4 nM
relative IC50 (UT-SCC-24B [6]; [19]): 11.6 nM
relative IC50 (UT-SCC-24B [6]; [20]): 15.8 nM
relative IC50 (UT-SCC-24B [6]; [21]): 12.8 nM
relative IC50 (UT-SCC-40 [7]; [17]): 5.31 nM
relative IC50 (UT-SCC-40 [7]; [18]): 9.86 nM
relative IC50 (UT-SCC-40 [7]; [19]): 5.3 nM
relative IC50 (UT-SCC-40 [7]; [20]): 12.9 nM
relative IC50 (UT-SCC-40 [7]; [21]): 11.7 nM
relative IC50 (UT-SCC-42A [8]; [17]): 15.6 nM
relative IC50 (UT-SCC-42A [8]; [18]): 16.6 nM
relative IC50 (UT-SCC-42A [8]; [19]): 13.2 nM
relative IC50 (UT-SCC-42A [8]; [20]): 16.4 nM
relative IC50 (UT-SCC-42A [8]; [21]): 11.5 nM
maximal % inhibition of viability (UT-SCC-8 [9]; [17]): 99.57 ± 0.25%
maximal % inhibition of viability (UT-SCC-8 [9]; [18]): 98.2 ± 0.56%
maximal % inhibition of viability (UT-SCC-8 [9]; [19]): 98.5 ± 1.1%
maximal % inhibition of viability (UT-SCC-8 [9]; [20]): 96.8 ± 1%
maximal % inhibition of viability (UT-SCC-8 [9]; [21]): 97.87 ± 0.61%
maximal % inhibition of viability (UT-SCC-81 [10]; [17]): 97.77 ± 0.51%
maximal % inhibition of viability (UT-SCC-81 [10]; [18]): 89.1 ± 0.91%
maximal % inhibition of viability (UT-SCC-81 [10]; [19]): 96.83 ± 0.76%
maximal % inhibition of viability (UT-SCC-81 [10]; [20]): 90.3 ± 1.4%
maximal % inhibition of viability (UT-SCC-81 [10]; [21]): 91.9 ± 2.2%
maximal % inhibition of viability (UT-SCC-44 [11]; [17]): 52.5 ± 1.9%
maximal % inhibition of viability (UT-SCC-44 [11]; [18]): 58.5 ± 5.7%
maximal % inhibition of viability (UT-SCC-44 [11]; [19]): 54.8 ± 4.2%
maximal % inhibition of viability (UT-SCC-44 [11]; [20]): 62.1 ± 5.8%
maximal % inhibition of viability (UT-SCC-44 [11]; [21]): 56 ± 3.9%
maximal % inhibition of viability (UT-SCC-42B [12]; [17]): 96.3 ± 0.7%
maximal % inhibition of viability (UT-SCC-42B [12]; [19]): 91.1 ± 1.4%
maximal % inhibition of viability (UT-SCC-42B [12]; [20]): 84 ± 1.2%
maximal % inhibition of viability (UT-SCC-42B [12]; [21]): 86.7 ± 1.1%
maximal % inhibition of viability (UT-SCC-73 [13]; [17]): 91.2 ± 0.27%
maximal % inhibition of viability (UT-SCC-73 [13]; [18]): 89.6 ± 3.3%
maximal % inhibition of viability (UT-SCC-73 [13]; [19]): 90.7 ± 1.4%
maximal % inhibition of viability (UT-SCC-73 [13]; [20]): 90 ± 1.3%
maximal % inhibition of viability (UT-SCC-73 [13]; [21]): 87.9 ± 1.4%
maximal % inhibition of viability (UT-SCC-24B [14]; [17]): 95.6 ± 0.79%
maximal % inhibition of viability (UT-SCC-24B [14]; [18]): 96.6 ± 1.4%
maximal % inhibition of viability (UT-SCC-24B [14]; [19]): 94.8 ± 1.3%
maximal % inhibition of viability (UT-SCC-24B [14]; [20]): 92 ± 1.2%
maximal % inhibition of viability (UT-SCC-24B [14]; [21]): 96.27 ± 0.55%
maximal % inhibition of viability (UT-SCC-40 [15]; [17]): 98.67 ± 0.4%
maximal % inhibition of viability (UT-SCC-40 [15]; [18]): 89.9 ± 0.76%
maximal % inhibition of viability (UT-SCC-40 [15]; [19]): 96.4 ± 1.7%
maximal % inhibition of viability (UT-SCC-40 [15]; [20]): 85.8 ± 1.6%
maximal % inhibition of viability (UT-SCC-40 [15]; [21]): 88.4 ± 2%
maximal % inhibition of viability (UT-SCC-42A [16]; [17]): 97.27 ± 0.59%
maximal % inhibition of viability (UT-SCC-42A [16]; [18]): 87.8 ± 1.7%
maximal % inhibition of viability (UT-SCC-42A [16]; [19]): 96.13 ± 0.86%
maximal % inhibition of viability (UT-SCC-42A [16]; [20]): 90.83 ± 0.76%
maximal % inhibition of viability (UT-SCC-42A [16]; [21]): 92.7 ± 1.3%
